Numbers after ± are expanded uncertainties.
What was measured:
[1] = Liquid, Vibrating tube method
[2] = mn = molality of the nth substance listed, in mol/kg; settings: 101 kPa, Liquid, Vibrating tube method

CN1CCCN(C)C1=O [1,3-dimethyl-3,4,5,6-tetrahydro-2(1H)-pyrimidinone]
[1], 101.33 kPa
Settings	mass density [kg/m3]
278.15 K	1076.18 ± 0.09
288.15 K	1067.81 ± 0.09
298.15 K	1059.46 ± 0.08
308.15 K	1051.12 ± 0.08
313.15 K	1046.95 ± 0.08
318.15 K	1042.78 ± 0.08

CN1CCCN(C)C1=O [1,3-dimethyl-3,4,5,6-tetrahydro-2(1H)-pyrimidinone] + O
mass density [kg/m3], [2]
Settings	278.15 K	288.15 K	298.15 K	308.15 K	313.15 K	318.15 K
m1 = 0.03864	1000.41 ± 0.04	999.51 ± 0.05	997.43 ± 0.05	994.38 ± 0.05	992.55 ± 0.05	990.54 ± 0.05
m1 = 0.07586	1000.85 ± 0.05	999.91 ± 0.04	997.79 ± 0.05	994.72 ± 0.05	992.88 ± 0.05	990.86 ± 0.05
m1 = 0.1037	1001.18 ± 0.05	1000.21 ± 0.05	998.07 ± 0.05	994.98 ± 0.05	993.12 ± 0.05	991.09 ± 0.05
m1 = 0.1575	1001.83 ± 0.05	1000.8 ± 0.05	998.61 ± 0.05	995.48 ± 0.05	993.6 ± 0.05	991.55 ± 0.05
m1 = 0.2215	1002.6 ± 0.05	1001.51 ± 0.05	999.26 ± 0.05	996.08 ± 0.05	994.18 ± 0.05	992.11 ± 0.05
m1 = 0.2812	1003.34 ± 0.05	1002.17 ± 0.05	999.87 ± 0.05	996.64 ± 0.05	994.72 ± 0.05	992.63 ± 0.05
m1 = 0.407	1004.9 ± 0.05	1003.6 ± 0.05	1001.17 ± 0.05	997.84 ± 0.05	995.87 ± 0.05	993.74 ± 0.05
m1 = 0.5303	1006.46 ± 0.05	1005.01 ± 0.05	1002.46 ± 0.05	999.04 ± 0.05	997.02 ± 0.05	994.85 ± 0.05
m1 = 0.6771	1008.32 ± 0.05	1006.7 ± 0.05	1004.01 ± 0.05	1000.47 ± 0.05	998.39 ± 0.05	996.17 ± 0.05
m1 = 0.8298	1010.25 ± 0.05	1008.46 ± 0.05	1005.62 ± 0.05	1001.96 ± 0.05	999.83 ± 0.05	997.56 ± 0.05
m1 = 0.9878	1012.23 ± 0.05	1010.27 ± 0.05	1007.28 ± 0.05	1003.5 ± 0.05	1001.31 ± 0.05	998.99 ± 0.05

CN1CCCN(C)C1=O [1,3-dimethyl-3,4,5,6-tetrahydro-2(1H)-pyrimidinone] + [2H]O[2H]
mass density [kg/m3], [2]
Settings	278.15 K	288.15 K	298.15 K	308.15 K	313.15 K	318.15 K
m1 = 0.0599	1105.6 ± 0.09	1105.78 ± 0.09	1104.3 ± 0.09	1101.53 ± 0.09	1099.72 ± 0.09	1097.69 ± 0.09
m1 = 0.08344	1105.61 ± 0.09	1105.76 ± 0.09	1104.25 ± 0.09	1101.47 ± 0.09	1099.64 ± 0.09	1097.6 ± 0.09
m1 = 0.1212	1105.63 ± 0.09	1105.73 ± 0.09	1104.18 ± 0.09	1101.36 ± 0.09	1099.52 ± 0.09	1097.47 ± 0.09
m1 = 0.1641	1105.66 ± 0.09	1105.71 ± 0.09	1104.11 ± 0.09	1101.25 ± 0.09	1099.39 ± 0.09	1097.32 ± 0.09
m1 = 0.2214	1105.72 ± 0.09	1105.69 ± 0.09	1104.03 ± 0.09	1101.11 ± 0.09	1099.23 ± 0.09	1097.13 ± 0.09
m1 = 0.3291	1105.85 ± 0.09	1105.68 ± 0.09	1103.9 ± 0.09	1100.88 ± 0.09	1098.96 ± 0.09	1096.82 ± 0.09
m1 = 0.5024	1106.17 ± 0.09	1105.76 ± 0.09	1103.77 ± 0.09	1100.59 ± 0.09	1098.6 ± 0.09	1096.39 ± 0.09
m1 = 0.6557	1106.53 ± 0.09	1105.89 ± 0.09	1103.73 ± 0.09	1100.4 ± 0.09	1098.34 ± 0.09	1096.07 ± 0.09
m1 = 0.7789	1106.85 ± 0.1	1106.03 ± 0.09	1103.73 ± 0.09	1100.28 ± 0.09	1098.17 ± 0.09	1095.85 ± 0.09
m1 = 0.9405	1107.31 ± 0.1	1106.25 ± 0.1	1103.76 ± 0.09	1100.16 ± 0.09	1097.99 ± 0.09	1095.61 ± 0.09
m1 = 1.074	1107.69 ± 0.1	1106.44 ± 0.1	1103.81 ± 0.09	1100.09 ± 0.09	1097.86 ± 0.09	1095.43 ± 0.09

[2H]O[2H] [water-d2]
[1], 101 kPa
Settings	mass density [kg/m3]
278.15 K	1105.59 ± 0.09
288.15 K	1105.85 ± 0.09
298.15 K	1104.43 ± 0.09
308.15 K	1101.72 ± 0.09
313.15 K	1099.93 ± 0.09
318.15 K	1097.92 ± 0.09

[2H]O[2H] [water-d2] + CN1CCCN(C)C1=O
[2], m2 = 0
Settings	mass density [kg/m3]
278.15 K	1105.59 ± 0.09
288.15 K	1105.85 ± 0.09
298.15 K	1104.43 ± 0.09
308.15 K	1101.72 ± 0.09
313.15 K	1099.93 ± 0.09
318.15 K	1097.92 ± 0.09

— the NIST ThermoML archive (doi:10.1016/j.tca.2010.11.002)
